Like-named read-outs stand apart in the source and are kept apart here. Some results are limits rather than exact numbers.

For data set [1], the system named is HIV-1RF. Put plainly: XTT cytoprotection assay (antiviral activity). The following applies: for antiviral activity: result in words. In kind it is cell-based. The text has this:
(§1) One exemplary means to determine antiviral activity is with CEM-SS cells and virus (e.g., HIV-1RF) (MOI = 0.01) using the XTT (2,3-bis[2-methoxy- 4-nitro-5-sulfophenyl] -5- [(phenylamino)carbonyl]-2H-tetrazolium hydroxide) cytoprotection assay, as described by Rice (1993) PNAS 90:9721-9724, and Rice (1997) Antimicrob. Agents Chemother. 41:419-426. Briefly, cells are infected with HIV-1RF (or other virus to be tested) in the presence of various dilutions of test compounds (thiolesters and controls). The cultures are incubated for seven days. During this time control cultures without protective compounds (i.e., compounds with anti-viral activity) replicate virus, induce syncytia, and result in about 90% cell death. The cell death is measured by XTT dye reduction. XTT is a soluble tetrazolimn dye that measures mitochondrial energy output, similar to MTT. Positive controls using dextran sulfate (an attachment inhibitor) or 3'-Azido -2'-3'-dideoxythymidine, AZT (a reverse transcriptase inhibitor) are added to each assay. Individual assays are done in duplicate using a sister plate method.
(§2) Effective antiviral concentrations providing 50% cytoprotection (EC50), and cellular growth inhibitory concentrations causing 50% cytotoxicity (IC50) are calculated.

Data set [2] deals with CEM-SS cells. Briefly: cells. In kind it is cell-based. The following applies: for IC50: Homo sapiens, CEM-SS; for toxicity at the high test dose: high test dose of 316 µM.
Excerpt: as §1, §2

The target of data set [3] is T1, recombinant HIV-1 NCp7 protein (Human immunodeficiency virus type 1 group M subtype B, UniProt P03347).
T1 construct: within the nucleocapsid p7 (NCp7) protein portion of the polyprotein
Put plainly: Trp37 zinc finger fluorescence (zinc ejection) assay. The settings on record: for Zinc Finger Reactivity RFU/30 min: Table 2. Format: biochemical. As for the experimental part:
Zinc finger reactivity was measured using a Zn specific fluorochrome, TSQ, N-(6-methoxy-8-quinolyl) -p-toluenesulfonamide, assay or a Trp37 zinc finger fluorescence assay. Fluorescent measurements of the Trp37 residue in the C-terminal finger of recombinant HIV-1 NCp7 protein were performed as described by Rice (1995) Science 270:1194-1197; Rice (1997) Antimicrob. Agents Chemother. 41:419-426. Measurement of Zn ejection from both fingers was measured using the Zn-selective fluorchrome probe TSQ (Molecular Probes, Eugene OR) as described by Rice (1996) J. Med. Chem 39:3606-3616. Measurement of the ability of NCp7 to bind to a DNA oligomer, a 44 mer: […] (SEQ ID NO:1), analogous to the HIV-1 RNA packaging site was carried out as described by Huang (1998) J. Med. Chem. 41:1371-1381, see also, Rossio (1998) HIV Pathogenesis and Treatment: Keystone Symposium on Molecular and Cellular Biology, Abstract # 4082. Briefly, 50 nM NCp7 was treated with test compounds for 1 hour at RT in […] buffer containing 10% glycerol and 50 mM Tris-HCl (pH 7.5). Labeled oligomer (0.1 picomole, end labeled [^32P]) was added in an equal volume of buffer containing 10% glycerol, 50 mM Tris-HCl (pH 7.5), 400 mM KCl and 40 mM MgCl2. The reaction was continued for 15 min at room temperature, and a total of […] (or 1/4 of the total reaction volume) was separated on nondenaturing 4.5% polyacrylamide gels in 0.5X Tris-Borate electrophoresis buffer. NCp7-oligomer complexes were visualized by autoradiography.
Changes in the intrinsic fluorescence of aromatic protein moieties are commonly used to monitor a reaction which involves a change in protein conformation. In the present invention, fluorescence can be used to monitor the loss of metal ion from a zinc finger, e.g., the loss of zinc from a CCHC retroviral zinc finger protein, after contact with a thiolester of the invention. The intrinsic fluorescence of Trp 37 in the second zinc finger of HIV-1 NC protein has been used to monitor nucleic acid binding and conformation of the zinc finger complex (see, Summers (1992) supra).
Zinc ejection is measured by the ability of compounds to chemically attack the cysteines in purified NCp7 protein resulting in a loss of fluorescence due to the movement of the tryptophan 37 residue from an exposed to an internal position on the protein. Zinc ejection is measured and expressed as either percent decrease in total fluorescence or decrease in relative fluorescence units per min during a 30 min assay (RFU/min). A thiolester is considered within the scope of the invention if any amount of zinc ejection is detected. For example, compound 50 has a zinc ejection rate of 0.86 RFU/min.

The mark [4] stands for this setting: Human immunodeficiency virus 1, read-out: Antiviral Activity EC50.
Setting [5] is: read-out: Antiviral Activity IC50.
[6] abbreviates: read-out: IC50 / cellular toxicity.
Where [7] appears, read: average decrease in relative fluorescence.
The mark [8] stands for this setting: Table 3, average decrease in relative fluorescence.
The mark [9] stands for this setting: Human immunodeficiency virus 1, B104.
Setting [10] is: Human immunodeficiency virus 1, read-out: EC50 (concentration inhibiting 50% virus replication).

As to `NS(=O)(=O)c1ccc(Cn2sc3ccccc3c2=O)cc1` [23 BITA], the EC50 in data set [1] (setting [4]) came to 13.8 µM. The IC50 in data set [2] (setting [5]) and in data set [2] (setting [6]) was 53.7 µM in each case. The “Zinc Finger Reactivity RFU/30 min” value in data set [3] (setting [7]) was found to be 2.7 RFU/30 min.
As for `NS(=O)(=O)c1ccc(CCn2sc3ccccc3c2=O)cc1` [24 BITA], the EC50 in data set [1] (setting [4]) stood at 2 µM. Besides, in data set [2] (setting [5]), the IC50 worked out at 45.5 µM. Moreover, the “Zinc Finger Reactivity RFU/30 min” value in data set [3] (setting [7]) is listed as 2.7 RFU/30 min.
For `CC(=O)Nc1ccc(S(=O)(=O)Nc2ccc(S(=O)(=O)c3ccc(-n4sc5ccccc5c4=O)cc3)cc2)cc1` [28 BITA], the EC50 in data set [1] (setting [4]) amounted to 9.6 µM. Further, the IC50 in data set [2] (setting [5]) turned out to be 188 µM. In addition, the “Zinc Finger Reactivity RFU/ min” value in data set [3] (setting [8]) was determined as 7.9 RFU/ min.
For `O=c1c2ccccc2sn1-c1ccc(S(=O)(=O)c2ccc([N+](=O)[O-])cc2)cc1` [31 BITA], the EC50 in data set [1] (setting [4]) is more than 316 µM. In addition, in data set [1], the antiviral activity entry is on record as “without antiviral activity”. Moreover, the IC50 in data set [2] (setting [5]) is more than 316 µM. Also, the “Zinc Finger Reactivity RFU/ min” value in data set [3] (setting [8]) was determined as 4.1 RFU/ min.
For `O=c1c2ccccc2sn1-c1ccc(S(=O)(=O)c2ccc(NS(=O)(=O)Cc3ccccc3[N+](=O)[O-])cc2)cc1` [34 BITA], in data set [1] (setting [4]), the EC50 stood at 3.2 µM. Besides, the antiviral activity entry in data set [1] is “significant antiviral activity”. Further, the IC50 in data set [2] (setting [5]) amounted to 59.5 µM. In data set [3] (setting [8]), the “Zinc Finger Reactivity RFU/ min” value came out at 2 RFU/ min.
With `NS(=O)(=O)c1ccc(CNC(=O)c2ccccc2SSc2ccccc2C(=O)NCc2ccc(S(N)(=O)=O)cc2)cc1` [Compound 23D, N,N'-(2,2'-dithiodibenzoyl)-bis-4-(aminomethyl)benzene-sulfonamide], the EC50 in data set [1] (setting [4]) came out at 0.33 µM. Also, the IC50 in data set [2] (setting [5]) and in data set [2] (setting [6]) was 19.4 µM each time. In addition, the “zinc finger reactivity / zinc ejection rate” value in data set [3] is reported as 3.3 RFU/min. In data set [3] (setting [7]), the “Zinc Finger Reactivity RFU/30 min” value came out at 3.3 RFU/30 min.
Regarding `NS(=O)(=O)c1ccc(CCNC(=O)c2ccccc2SSc2ccccc2C(=O)NCCc2ccc(S(N)(=O)=O)cc2)cc1` [Compound 24D, N,N-(2,2'-dithiodibenzoyl)-bis-4-(2-aminoethyl)benzene-sulfonamide], the EC50 in data set [1] (setting [4]) turned out to be 0.41 µM. The IC50 in data set [2] (setting [5]) was found to be 52.8 µM. Moreover, in data set [3] (setting [7]), the “Zinc Finger Reactivity RFU/30 min” value was 2.7 RFU/30 min.
As for `NS(=O)(=O)c1ccc(NC(=O)CNC(=O)c2ccccc2SSc2ccccc2C(=O)NCC(=O)Nc2ccc(S(N)(=O)=O)cc2)cc1` [Compound 25D, N,N'-(2,2'-dithiodibenzoyl)-bis-4-(glycinamido)benzene-sulfonamide], the EC50 in data set [1] (setting [4]) is 1.6 µM. Further, the IC50 in data set [2] (setting [5]) was found to be 17.6 µM. Besides, the “zinc finger reactivity / zinc ejection rate” value in data set [3] is listed as 7.9 RFU/min. Moreover, in data set [3] (setting [7]), the “Zinc Finger Reactivity RFU/30 min” value is recorded as 7.9 RFU/30 min.
For the compound `Nc1ccc(S(=O)(=O)c2ccc(NC(=O)c3ccccc3SSc3ccccc3C(=O)Nc3ccc(S(=O)(=O)c4ccc(N)cc4)cc3)cc2)cc1` [Compound 26D], the EC50 in data set [1] (setting [9]), in data set [1] (setting [4]) and in data set [1] (setting [10]) was 4.3 µM each time. For the same compound, the IC50 in data set [2] (setting [5]) is less than 316 µM. The “toxicity at the high test dose” value in data set [2] is listed as “no toxicity”. For the same compound, the “zinc finger reactivity / zinc ejection rate” value in data set [3] is listed as 3.3 RFU/min. Besides, in data set [3] (setting [8]), the “Zinc Finger Reactivity RFU/ min” value amounted to 3.3 RFU/ min.
For `CC(=O)Nc1ccc(S(=O)(=O)c2ccc(NC(=O)c3ccccc3SSc3ccccc3C(=O)Nc3ccc(S(=O)(=O)c4ccc(NC(C)=O)cc4)cc3)cc2)cc1` [Compound 27D], the EC50 in data set [1] (setting [9]), in data set [1] (setting [4]) and in data set [1] (setting [10]) was 1.5 µM throughout. Besides, the IC50 in data set [2] (setting [5]) and in data set [2] (setting [6]) was 160 µM each time. For the same compound, in data set [3], the “zinc finger reactivity / zinc ejection rate” value is 5.9 RFU/min. For the same compound, the “Zinc Finger Reactivity RFU/ min” value in data set [3] (setting [8]) was found to be 5.9 RFU/ min.
Regarding `CC(=O)Nc1ccc(S(=O)(=O)Nc2ccc(S(=O)(=O)c3ccc(NC(=O)c4ccccc4SSc4ccccc4C(=O)Nc4ccc(S(=O)(=O)c5ccc(NS(=O)(=O)c6ccc(NC(C)=O)cc6)cc5)cc4)cc3)cc2)cc1` [Compound 28D], the EC50 in data set [1] (setting [4]) stood at 1 µM. For the same compound, the IC50 in data set [2] (setting [5]) was found to be 12.7 µM. Besides, the “Zinc Finger Reactivity RFU/ min” value in data set [3] (setting [8]) stood at 5.9 RFU/ min.
The like results for `COc1ccc(C(=O)Nc2ccc(S(=O)(=O)c3ccc(NC(=O)c4ccccc4SSc4ccccc4C(=O)Nc4ccc(S(=O)(=O)c5ccc(NC(=O)c6ccc(OC)cc6)cc5)cc4)cc3)cc2)cc1` [Compound 29D] were, in that order, 3.8 µM, 79.6 µM and 6.9 RFU/ min.
With `O=C(Nc1ccc(S(=O)(=O)c2ccc(NC(=O)c3ccccc3SSc3ccccc3C(=O)Nc3ccc(S(=O)(=O)c4ccc(NC(=O)c5cccs5)cc4)cc3)cc2)cc1)c1cccs1` [Compound 30D], the EC50 in data set [1] (setting [4]) worked out at 12.2 µM. Besides, the IC50 in data set [2] (setting [5]) was 190 µM.
Take `O=C(Nc1ccc(S(=O)(=O)c2ccc([N+](=O)[O-])cc2)cc1)c1ccccc1SSc1ccccc1C(=O)Nc1ccc(S(=O)(=O)c2ccc([N+](=O)[O-])cc2)cc1` [Compound 31D]: the EC50 in data set [1] (setting [4]) and in data set [1] (setting [10]) was 12.2 µM in each case. Further, the IC50 in data set [2] (setting [5]) was more than 316 µM. Moreover, the “toxicity at the high test dose” value in data set [2] is “no toxicity”. For the same compound, in data set [3] (setting [8]), the “Zinc Finger Reactivity RFU/ min” value came to 2.9 RFU/ min.
Regarding `O=C(Nc1ccc(S(=O)(=O)c2ccc(NC(=O)c3ccccc3SSc3ccccc3C(=O)Nc3ccc(S(=O)(=O)c4ccc(NC(=O)c5ccc([N+](=O)[O-])cc5)cc4)cc3)cc2)cc1)c1ccc([N+](=O)[O-])cc1` [Compound 32D], the EC50 in data set [1] (setting [4]) is 78 µM. Also, in data set [2] (setting [5]), the IC50 is more than 316 µM. Moreover, the “Zinc Finger Reactivity RFU/ min” value in data set [3] (setting [8]) was determined as 2.9 RFU/ min.
In the case of `O=C(Nc1ccc(S(=O)(=O)c2ccc(NC(=O)c3ccccc3SSc3ccccc3C(=O)Nc3ccc(S(=O)(=O)c4ccc(NC(=O)c5cc([N+](=O)[O-])cc([N+](=O)[O-])c5)cc4)cc3)cc2)cc1)c1cc([N+](=O)[O-])cc([N+](=O)[O-])c1` [Compound 33D], the EC50 in data set [1] (setting [4]) is 240 µM. In addition, the IC50 in data set [2] (setting [5]) was more than 316 µM. Moreover, the “Zinc Finger Reactivity RFU/ min” value in data set [3] (setting [8]) stood at 1.6 RFU/ min.
As to `O=C(Nc1ccc(S(=O)(=O)c2ccc(NS(=O)(=O)Cc3ccccc3[N+](=O)[O-])cc2)cc1)c1ccccc1SSc1ccccc1C(=O)Nc1ccc(S(=O)(=O)c2ccc(NS(=O)(=O)Cc3ccccc3[N+](=O)[O-])cc2)cc1` [Compound 34D], the EC50 in data set [1] (setting [10]) stood at 12.3 µM. Besides, the antiviral activity entry in data set [1] is “significant antiviral activity”. Also, the IC50 in data set [2] (setting [5]) is more than 316 µM. Besides, the “toxicity at the high test dose” value in data set [2] is on record as “no toxicity”. Moreover, the “Zinc Finger Reactivity RFU/ min” value in data set [3] (setting [8]) was determined as 1.5 RFU/ min.
Regarding `Nc1cccc(S(=O)(=O)c2cccc(NC(=O)c3ccccc3SSc3ccccc3C(=O)Nc3cccc(S(=O)(=O)c4cccc(N)c4)c3)c2)c1` [Compound 35], the EC50 in data set [1] (setting [9]) and in data set [1] (setting [4]) was 1 µM in each case. Besides, in data set [2] (setting [5]), the IC50 amounted to 81.5 µM. In addition, the “zinc finger reactivity / zinc ejection rate” value in data set [3] came to 0.92 RFU/min. The “Zinc Finger Reactivity RFU/ min” value in data set [3] (Table 4, average decrease in relative fluorescence units over 30 min) was 0.92 RFU/min.

Source of the values: EP1087941B9, “THIOLESTERS AND USES THEREOF” (THE UNITED STATES OF AMERICA, as represented by THE …, priority 1998, dated 1999).
